Among the test systems are RXF 393 renal; HCT-15 colon; SK-MEL-28 melanoma; RPMI-8226 leukemia; PC-3 prostate; SNB-19 CNS; SW-620 colon; CAKI-1 renal; SK-MEL-2 melanoma; SF-268 CNS.
Assay in all cases: growth of human tumour cells (NCI), 48 h

Structures are written as SMILES. Values joined by “and” are separate entries in the source; they are usually repeats but may differ in a detail not shown here. Identical values can stand only once.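 Test compounds were applied to cells in 96-well plates for 48 hours at 5 doses. GI50 is the concentration that inhibits growth by half. TGI is the concentration that stops growth completely.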

For `O=C(c1ccccc1)C(Br)C(Br)c1cccc([N+](=O)[O-])c1` (stereo not drawn), the GI50 is 1.59 µM with RXF 393 renal; 1.72 µM in the test with HCT-15 colon; 1.87 µM with SK-MEL-28 melanoma; 2.15 µM in the test on RPMI-8226 leukemia; 2.26 µM with PC-3 prostate; 3.32 µM in the test with SNB-19 CNS. In addition, the GI50 is 0.342 µM in the test on SW-620 colon, 1.76 µM with CAKI-1 renal, 3.03 µM in the test on SK-MEL-2 melanoma and 2.47 µM with SF-268 CNS. Further, the TGI in the test on RXF 393 renal is 2.94 µM; in the test on HCT-15 colon, 3.36 µM; with SK-MEL-28 melanoma it was 3.64 µM; in the test on RPMI-8226 leukemia, 6.24 µM; in the test on PC-3 prostate, 6.84 µM; with SNB-19 CNS it was 12.9 µM. Also, the TGI amounted to 1.49 µM in the test on SW-620 colon, 3.58 µM in the test with CAKI-1 renal, 8.48 µM in the test with SK-MEL-2 melanoma and 6.77 µM with SF-268 CNS.

Take `COC(=O)CCC1CCC(c2cc(F)ccc2F)(S(=O)(=O)c2ccc(Cl)cc2)CC1` (stereo not drawn): the GI50 in the test on RXF 393 renal was 55.4 µM; in the test with HCT-15 colon it was greater than 100 µM; with SK-MEL-28 melanoma, greater than 100 µM; with RPMI-8226 leukemia, 41.9 µM; with PC-3 prostate, 30.7 µM; with SNB-19 CNS, greater than 100 µM. Further, the GI50 in the test with SW-620 colon was greater than 100 µM; in the test on CAKI-1 renal, 6 µM; in the test on SK-MEL-2 melanoma, 62 µM; with SF-268 CNS, greater than 100 µM. For the same compound, the TGI with RXF 393 renal, in the test with HCT-15 colon, with SK-MEL-28 melanoma, in the test with RPMI-8226 leukemia, in the test on PC-3 prostate and in the test on SNB-19 CNS was greater than 100 µM each time. Besides, the TGI with SW-620 colon, in the test with CAKI-1 renal, in the test with SK-MEL-2 melanoma and in the test on SF-268 CNS was greater than 100 µM each time.

Regarding `Cc1ccc2c(c1)C(C)Cc1c(Cl)ncnc1N2C` (stereo not drawn), the GI50 was 2.87 µM in the test on RXF 393 renal; 3.08 µM in the test on HCT-15 colon; 0.905 µM in the test on SK-MEL-28 melanoma; 3.56 µM in the test on RPMI-8226 leukemia; 3.62 µM with PC-3 prostate; 4.89 µM with SNB-19 CNS. The GI50 in the test with SW-620 colon is 3.2 µM; in the test with CAKI-1 renal it was 3.22 µM; with SK-MEL-2 melanoma, 3.03 µM; in the test with SF-268 CNS it was 2.5 µM. Besides, the TGI is 8.62 µM in the test on RXF 393 renal; 14.1 µM with HCT-15 colon; 48.7 µM in the test with SK-MEL-28 melanoma; 17.2 µM in the test on RPMI-8226 leukemia; 72.1 µM in the test with PC-3 prostate; 49.7 µM with SNB-19 CNS. For the same compound, the TGI in the test with SW-620 colon is 13.3 µM; in the test on CAKI-1 renal it was greater than 100 µM; in the test on SK-MEL-2 melanoma it was 8.1 µM; with SF-268 CNS, 13.8 µM.

Take `N#CC1=C(N)Oc2c(sc3c(Br)cccc23)C1c1ccc(Br)cc1` (stereo not drawn): the GI50 in the test with RXF 393 renal is 1.97 µM; in the test with HCT-15 colon, 0.601 µM; in the test with SK-MEL-28 melanoma, 1.44 µM; in the test with RPMI-8226 leukemia it was 1.44 µM; in the test on PC-3 prostate it was 0.516 µM; in the test on SNB-19 CNS, 0.707 µM. Moreover, the GI50 with SW-620 colon was 1.55 µM; in the test on CAKI-1 renal it was 1.97 µM; with SK-MEL-2 melanoma, 0.434 µM; in the test on SF-268 CNS it was 1.15 µM. The TGI in the test with RXF 393 renal was 6.18 µM; in the test with HCT-15 colon, 11.4 µM; with SK-MEL-28 melanoma, 13.3 µM; in the test with RPMI-8226 leukemia it was 16 µM; with PC-3 prostate it was 6.32 µM; with SNB-19 CNS, 12.8 µM. Further, the TGI with SW-620 colon stood at 15.1 µM; in the test with CAKI-1 renal, 22.2 µM; in the test with SK-MEL-2 melanoma, 4 µM; in the test on SF-268 CNS, 10 µM.

With `CC(C)c1c(O)ccc2c1CCC1C(C)(C)CCCC21C` (stereo not drawn), the TGI with RXF 393 renal is 29.3 µM; in the test on HCT-15 colon it was 34.3 µM; in the test with SK-MEL-28 melanoma it was 38.1 µM; in the test on RPMI-8226 leukemia, 49.3 µM; in the test with PC-3 prostate, 31.4 µM; in the test on SNB-19 CNS, 32.3 µM. Besides, the TGI was 40.1 µM in the test on SW-620 colon, 31.7 µM in the test on CAKI-1 renal, 31.9 µM with SK-MEL-2 melanoma and 35.5 µM with SF-268 CNS.

For the compound `Cc1cc(=O)[nH]c2cc3c(c4c(n3Cc3ccc(Cl)cc3Cl)CC(C)(C)CC4=O)c(O)c12`, the GI50 in the test with RXF 393 renal is greater than 100 µM; in the test with HCT-15 colon it was greater than 100 µM; with SK-MEL-28 melanoma, greater than 100 µM; in the test on RPMI-8226 leukemia, greater than 100 µM; with PC-3 prostate it was greater than 100 µM; in the test on SNB-19 CNS it was 55.8 µM. Moreover, the GI50 with SW-620 colon is greater than 100 µM; in the test with CAKI-1 renal, greater than 100 µM; in the test on SK-MEL-2 melanoma it was greater than 100 µM; in the test on SF-268 CNS, 76.1 µM. The TGI in the test on RXF 393 renal, in the test with HCT-15 colon, in the test with SK-MEL-28 melanoma, in the test on RPMI-8226 leukemia, with PC-3 prostate and with SNB-19 CNS was greater than 100 µM each time. The TGI in the test with SW-620 colon, with CAKI-1 renal, in the test on SK-MEL-2 melanoma and in the test on SF-268 CNS was greater than 100 µM each time.

Consider `CCCCCCCCCCC(C(O)c1ccccc1)N1CCCCC1` (stereo not drawn), for which the GI50 was 1.76 µM in the test on RXF 393 renal; 1.63 µM in the test with HCT-15 colon; 1.83 µM in the test with SK-MEL-28 melanoma; 1.9 µM in the test with RPMI-8226 leukemia; 3.43 µM with PC-3 prostate; 1.84 µM in the test on SNB-19 CNS. The GI50 in the test with SW-620 colon is 1.7 µM; in the test with CAKI-1 renal, 1.53 µM; with SK-MEL-2 melanoma it was 2.25 µM; in the test with SF-268 CNS, 1.51 µM. Also, the TGI in the test with RXF 393 renal amounted to 3.4 µM; in the test with HCT-15 colon, 4.38 µM; in the test with SK-MEL-28 melanoma, 3.32 µM; in the test on RPMI-8226 leukemia it was 4.34 µM; with PC-3 prostate, 12.4 µM; in the test on SNB-19 CNS it was 3.95 µM. Moreover, the TGI with SW-620 colon was 3.21 µM; in the test with CAKI-1 renal, 3.06 µM; in the test on SK-MEL-2 melanoma it was 4.84 µM; with SF-268 CNS, 4.73 µM.

For `Oc1[nH]c2c(Br)cccc2c1C1=Nc2ccccc2/C1=N/OCCN1CCCC1`, the GI50 in the test with RXF 393 renal is 0.942 µM; in the test on HCT-15 colon, 0.719 µM and 0.496 µM; with SK-MEL-28 melanoma, 1.92 µM; in the test with RPMI-8226 leukemia, 1.35 µM and 1.59 µM; in the test with PC-3 prostate it was 0.824 µM; in the test with SNB-19 CNS it was 1.93 µM. Further, the GI50 with SW-620 colon was 1.49 µM and 0.542 µM; with CAKI-1 renal, 0.332 µM; with SK-MEL-2 melanoma, 2.21 µM; in the test with SF-268 CNS, 0.813 µM. Also, the results for the TGI with RXF 393 renal, with SK-MEL-28 melanoma and with CAKI-1 renal were 9.66 µM, 5.49 µM and 2.24 µM, respectively.

Source of the values: PubChem BioAssay (NCI).
